{"source": "patent US8106218B2", "about": "“Pharmaceutical compounds” (Neuroscienze Pharmaness S.C. A R.L., priority 2004, dated 2012)", "key": {"[1]": {"target": "T1, cannabinoidergic CB1 receptors (Rattus norvegicus, UniProt P20272)", "T1 construct": "the brain in toto (cerebellum excluded) and the spleen were rapidly dissected and maintained in ice; from tissue; host or cells: rat brain (cerebellum excluded), membrane preparation", "T1 sequence (P20272 whole entry)": "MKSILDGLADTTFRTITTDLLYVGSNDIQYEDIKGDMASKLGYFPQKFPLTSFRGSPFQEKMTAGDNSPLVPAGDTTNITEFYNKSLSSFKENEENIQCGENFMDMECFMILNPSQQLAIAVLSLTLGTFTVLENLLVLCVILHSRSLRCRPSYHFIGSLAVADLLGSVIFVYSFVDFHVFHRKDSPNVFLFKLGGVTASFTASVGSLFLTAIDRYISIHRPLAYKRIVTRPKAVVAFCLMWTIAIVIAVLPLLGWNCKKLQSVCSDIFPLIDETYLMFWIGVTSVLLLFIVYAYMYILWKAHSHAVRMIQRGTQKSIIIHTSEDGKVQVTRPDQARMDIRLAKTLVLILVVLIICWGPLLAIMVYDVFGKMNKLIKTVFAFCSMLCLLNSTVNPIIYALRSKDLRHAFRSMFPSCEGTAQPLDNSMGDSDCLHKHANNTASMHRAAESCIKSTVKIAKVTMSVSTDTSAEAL", "test": "Radioreceptorial binding, [3H]-CP-55,940 competition, rat brain membranes", "method": "(§1) The affinity of the synthesized compounds towards the cannabinoidergic CB1 and CB2 receptors was evaluated in vitro through radioreceptorial binding studies by utilizing the following method.\n(§2) The receptorial binding technique allows indeed to establish if and with what affinity and specificity a determined compound binds itself to a particular receptor. To evaluate the possible affinity of a determined compound towards a particular receptor it is necessary to make to compete (in a particular preparation of the tissue in which those determined receptors are present) the compound to be tested with another compound whose affinity is known and whose molecule was rendered radioactive. […] The reading of the radioactivity present in the receptor-compound complex allows furthermore to calculate with extreme precision the amount of compound bound to the receptor. […] By repeating the same experimental scheme it is possible to evaluate the affinity of the compound towards other kinds of receptors and establish then the specificity degree.\n(§3) Food and water were available ad libitum.\n(§4) The animals were sacrificed by cervical dislocation, the brain in toto (cerebellum excluded) and the spleen were rapidly dissected and maintained in ice.\n(§5) The tissue was homogenized in 15 volumes (weight/volume) of TME buffer (50 mM Tris, 1 mM EDTA e 3 mM MgCl2, pH 7.4) by an Ultra-Turrax and centrifuged for 10 minutes at 1086×g in a centrifuge cooled at 4° C. The resulting supernatant was centrifuged at 45,000×g for 30 min at 4° C. by using a Beckman SW41 rotor and the final pellet was resuspended in 50 volumes of TME.\n(§6) The obtained membranes (50-80 μg of proteins) were incubated in the presence of 1 nM di[^3H]-CP55,940 for 1 h at 30° C. in a final volume of 0.5 ml of TME buffer containing 5 mg/ml of bovine serum albumin (BSA). The non specific binding was measured in the presence of CP55,940 at the 1 μM concentration.\n(§7) All the experiments were carried out in polypropylene test tubes pretreated with Sigma-Cote (Sigma Chemical Co. Ltd., Poole, UK) to reduce the non specific binding.\n(§8) For the building of the competitive inhibition binding curves eight different concentrations of each compound were used.\n(§9) Incubation was interrupted by addition of TME buffer (at 4° C.) containing 5 mg/ml of BSA and filtration under vacuum through Whatman GFC filters pretreated with 0.5% of polyethylamine (PEI) and by using a filtering apparatus (Brandell, Gaithersburg, Md., USA). Filters were washed 3 times with 5 ml of Tris HCl buffer (pH 7.4, 4° C.) containing 1 mg/ml of BSA and singly placed in plastic vials containing 4 ml of scintillating liquid (Ultima Gold MV, Packard).\n(§10) The radioactivity present in the filters was measured by a scintillator spectrophotometer (Tricarb 2100, Packard, Meridien, USA).\n(§11) The protein determination was carried out by the Bradford method by using the protocol and the reactants supplied by Bio-Rad (Milano, Italia).\n(§12) The affinity of the compounds towards the CB1 and CB2 receptors was expressed in Ki terms."}, "[2]": {"target": "T2, cannabinoidergic CB2 receptors (Rattus norvegicus, UniProt Q9QZN9)", "T2 construct": "the brain in toto (cerebellum excluded) and the spleen were rapidly dissected and maintained in ice; from tissue; host or cells: rat spleen, membrane preparation", "T2 sequence (Q9QZN9 1-360)": "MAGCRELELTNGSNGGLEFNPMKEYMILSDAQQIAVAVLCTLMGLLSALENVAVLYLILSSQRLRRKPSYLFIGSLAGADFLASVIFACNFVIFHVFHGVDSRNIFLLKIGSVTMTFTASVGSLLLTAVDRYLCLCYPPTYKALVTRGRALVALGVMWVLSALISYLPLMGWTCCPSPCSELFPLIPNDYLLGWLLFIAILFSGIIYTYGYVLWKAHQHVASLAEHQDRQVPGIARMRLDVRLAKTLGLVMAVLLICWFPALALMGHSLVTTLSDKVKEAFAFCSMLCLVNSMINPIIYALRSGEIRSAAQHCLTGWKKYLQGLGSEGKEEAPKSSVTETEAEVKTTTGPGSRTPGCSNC", "test": "Radioreceptorial binding, [3H]-CP-55,940 competition, rat spleen membranes", "method": "as §1, §2, §3, §4, §5, §6, §7, §8, §9, §10, §11, §12"}, "rat": {"test_system": "rat", "conditions": "concluded from the hypothermia tests", "method": "The rectal temperature in the rat was determined by an electronic thermometer inserted at a 2 mm depth. The measurements were carried out on rats acclimated for one hour. […]\nEach test was repeated on ten animals; the reported results are the average of the results obtained with the ten animals."}, "rat intestinal motility [3]": {"test_system": "rat intestinal motility", "test": "Intestinal motility, Upper Gut Transit Test, compound alone", "type": "in vivo", "conditions": "control 50%", "method": "(§13) To evaluate the activity in vivo of the compounds (I) object of the present invention, functional tests were carried out directed to the evaluation of the effect of said compounds on the rat intestinal motility. It was indeed shown the involvement of the cannabinoidergic CB1 receptors in the intestinal motility regulation in rat (R. G. Pertwee et al; Br. J. Pharmacol.; 1996, 118, 2199-2205). In particular, the CB1 receptor agonists slacken the gastrointestinal motility; antagonist compounds of the same receptors have instead a prokinetic effect on the gastrointestinal transit (G. Colombo et al.; Eur. J. Pharmacol.; 1998, 344, 67-69; M. A. Casu et al.; Eur. J. Pharmacol.; 2003, 459, 97-105).\n(§14) The evaluation of the constipating or prokinetic effect of the compounds was carried out by the Upper Gut Transit Test method on the basis of the procedure defined and ratified by Y. Nagakura et al.; Eur. J. Pharmacol.; 1996, 311, 67-72. The method, which allows to measure the motility of the stomach and of the first intestine tract (small or little intestine), requires: • the administration of the compound to be tested by i.p. route; • the administration of carmine red (marker not directly absorbable from the stomach) by intragastric route through a metal probe, after 20 minutes from the administration of the compound to be tested; • the rat sacrifice by cervical dislocation after a pre-fixed time (30 minutes) starting from the administration time; • the intestine explant from pylorus to the ileo-cecal valve; • the determination of the intestinal part crossed by the marker; • the data processing to determine the percentage of crossed part with respect to the total length of the small intestine.\nWith respect to the control (physiological solution or carrier wherein the compounds to be tested were solubilized or dispersed), the administration of CB1 agonist compounds implies an intestinal transit percentage reduction; an opposite effect is noticed in case of antagonist compounds. The latter are therefore capable to cancel the constipating effect of CB1 agonist compounds.\nEach test was repeated on ten animals; the results reported in the Examples are the average of the results obtained with ten animals."}, "rat intestinal motility [4]": {"test_system": "rat intestinal motility", "test": "Intestinal motility, Upper Gut Transit Test, antagonism of the constipating action of WIN 55,212-2", "type": "in vivo", "conditions": "WIN alone 25%", "method": "as §13, §14\nWith respect to the control (physiological solution or carrier wherein the compounds to be tested were solubilized or dispersed), the administration of CB1 agonist compounds implies an intestinal transit percentage reduction; an opposite effect is noticed in case of antagonist compounds. The latter are therefore capable to cancel the constipating effect of CB1 agonist compounds. […]"}}, "note": "“Also recorded” adds a separate entry of the source. Read-outs that look alike come from different tables or passages of the source.", "data": [{"compound": "O=C(NN1CCCC1)c1nn(-c2ccc(Cl)cc2Cl)c2c1CCc1sc(Cl)cc1-2", "note": "[Example 3.5, N-pyrrolidinyl-7-chloro-1-(2′,4′-dichlorophenyl)-4,5-dihydro-1H-thieno[2,3-g]indazol-3-carboxamide]", "values": [{"measurement": "Ki", "setting": "[1]; rat brain membranes, 1 nM [3H]-CP55,940, read-out: CB1 (brain) Ki", "result": "137 ± 12", "unit": "nM"}, {"measurement": "Ki", "setting": "[2]; rat spleen membranes, 1 nM [3H]-CP55,940, read-out: CB2 (spleen) Ki", "result": "243 ± 14", "unit": "nM"}, {"measurement": "passage of the hemato-encephalic barrier", "setting": "rat", "result": "not able to pass the hemato-encephalic barrier"}, {"measurement": "intestinal portion run by the marker with respect to the total intestine length", "setting": "rat intestinal motility [3]; compound 5 mg/kg i.p.", "result": 67, "unit": "%"}, {"measurement": "intestinal portion run by the marker with respect to the total intestine length", "setting": "rat intestinal motility [4]; compound 1.5 mg/kg before WIN 55,212-2 0.5 mg/kg", "result": 50, "unit": "%"}, {"measurement": "melting point", "result": 228, "unit": "°C"}]}, {"compound": "O=C(NN1CCCCCC1)c1nn(-c2ccc(Cl)cc2Cl)c2c1CCc1sc(Cl)cc1-2", "note": "[Example 3.6, N-homopiperidinyl-7-chloro-1-(2′,4′-dichlorophenyl)-4,5-dihydro-1H-thieno[2,3-g]indazol-3-carboxamide]", "values": [{"measurement": "Ki", "setting": "[1]", "result": "9.83 ± 0.72", "unit": "nM"}, {"measurement": "Ki", "setting": "[2]", "result": "20.8 ± 1.4", "unit": "nM"}, {"measurement": "passage of the hemato-encephalic barrier", "setting": "rat", "result": "unable to pass the hemato-encephalic barrier; also recorded: not capable to pass the hemato-encephalic barrier"}, {"measurement": "intestinal portion run by the marker with respect to the total intestine length", "setting": "rat intestinal motility [3]; compound 1 mg/kg i.p.", "result": 65, "unit": "%"}, {"measurement": "intestinal portion run by the marker with respect to the total intestine length", "setting": "rat intestinal motility [3]; compound 5 mg/kg i.p.", "result": 75, "unit": "%"}, {"measurement": "intestinal portion run by the marker with respect to the total intestine length", "setting": "rat intestinal motility [4]; compound 0.3 mg/kg before WIN 55,212-2 0.5 mg/kg", "result": 50, "unit": "%"}, {"measurement": "melting point", "result": "181 to 182", "unit": "°C"}]}]}
